Reference: article PMC8159111 (Pathogens, 2021)

Tests used:
Type in all cases: cell-based
[1] = system: MERS-CoV virus "NRCE-HKU270"; assay: microbe, parasite or virus in culture; conditions: Middle East respiratory syndrome-related coronavirus, Vero C1008, read-out: IC50 (half-maximal inhibitory concentration)
[2] = system: NRC-03-nhCoV (SARS-CoV-2) in Vero-E6 cells; assay: Mode of antiviral action, plaque infectivity reduction assay (adsorption, replication, virucidal)
Procedure: To investigate whether the tested compound with high selectivity index and antiviral activity against NRC-03-nhCoV affect (a) viral adsorption, (b) viral replication or (c) viricidal effect, a plaque infectivity reduction assay was performed according to the following protocols: • (a) Viral adsorption mechanism
The viral adsorption mechanism was assayed according to a protocol by Zhang et al. with minor modifications. Vero-E6 cells were cultivated in a 6-well plate (10^5 cells/mL) for 24 h at 37 °C. Each tested drug was applied in 500 µL of medium without supplements and co-incubated with the cells for 2 h at 4 °C. The non-absorbed drug in the applied inocula was removed by washing cells three times with 1x PBS. The NRC-03-nhCoV was diluted to a countable range “10^−4” and co-incubated with the pretreated cells. About 1 h post-incubation, the inocula were removed and 3 mL of agarose overlay (1:1 mixture of warmed 2× plaque media and a stock solution of heated 2% agarose) were added. The plates were kept at room temperature to solidify and then incubated at 37 °C to allow the formation of viral plaques. The plaques were fixed using 10% formaldehyde, stained using crystal violet (1% crystal violet in 20% ethanol and distilled H2O), washed with rinse water and dried to calculate the percentage reduction in plaque formation compared to control wells, which comprised untreated Vero-E6 cells directly infected with NRC-03-nhCoV.
The impact of the tested drug on viral replication was determined as previously described. Vero-E6 cells were cultivated in a 6-well plate (10^5 cell/mL) for 24 h at 37 °C. The NRC-03-nhCoV of the countable range was inoculated directly to the cells and incubated for 1 h at 37 °C. The inocula containing the non-adsorbed virus were removed by washing infected cell monolayers three times with 1× PBS. The analyzed compound was then applied in varying concentrations to infected cells for another 1 h contact time at 37 °C. After removing the inocula containing the tested drug, agarose overlay were added to the cells. […]

[3] = system: SARS-CoV-2 "NRC-03-nhCoV" virus; assay: Inhibitory concentration 50 (IC50) determination, reduction of virus-induced cytopathic effect in Vero-E6 cells; conditions: Severe acute respiratory syndrome coronavirus 2, Vero C1008, 72 h, against NRC-03-nhCoV in Vero E6, 72 h, CPE reduction, crystal violet; unit not given in Table 4 and Figure 6, Figure 4 and text print μM; read-out: IC50 (half-maximal inhibitory concentration)
Procedure: The IC50 values for the tested compounds were determined as previously described, with minor modifications. Briefly, in 96-well tissue culture plates, 2.4 × 10^4 Vero-E6 cells were distributed in each well and incubated overnight at a humidified 37°C incubator under 5% CO2 condition. The cell monolayers were then washed once with 1× PBS. An aliquot of the SARS-CoV-2 “NRC-03-nhCoV” virus containing 100 TCID50 was incubated with serial diluted compounds and kept at 37 °C for 1 h. The Vero-E6 cells were treated with virus/compound mix and co-incubated at 37 °C in a total volume of 200 µL per well. Untreated cells infected with virus represented the virus control; however, cells that were not treated and not infected were the cell control. Following incubation at 37 °C in 5% CO2 incubator for 72 h, the cells were fixed with 100 μL of 10% paraformaldehyde for 20 min and stained with 0.5% crystal violet in distilled water for 15 min at RT. The crystal violet dye was then dissolved using 100 μL of absolute methanol per well and the optical density of the color was measured at 570 nm using the Anthos Zenyth 200 rt plate reader (Anthos Labtec Instruments, Heerhugowaard, the Netherlands).

[4] = Cytotoxicity (CC50) determination, crystal violet assay; conditions: African green monkey, Vero E6 cells, Table 4 prints no unit, Figure 4 prints μM, read-out: CC50 (half-maximal cytotoxic concentration)
Procedure: To assess the half maximal cytotoxic concentration (CC50), stock solutions of the test compounds were prepared in 10% DMSO in ddH2O and diluted further to the working solutions with DMEM. The cytotoxic activity of the extracts was tested in VERO-E6 cells by using crystal violet assay as previously described with minor modifications. Briefly, the cells were seeded in 96-well plates (100 µL/well at a density of 3 × 10^5 cells/mL) and incubated for 24 h at 37 °C in a humidified 5% CO2 incubator. After 24 h, cells were treated with various concentrations of the tested compounds in triplicates. Seventy two hours later, the supernatant was discarded, and cell monolayers were fixed with 10% formaldehyde for 1 h at room temperature (RT). The fixed monolayers were then dried and stained with 50 µL of 0.1% crystal violet for 20 min on a bench rocker at RT. The monolayers were then washed, dried and the crystal violet dye in each well was then dissolved with 200 µL of methanol for 20 min on a bench rocker at RT. The absorbance of crystal violet solutions was measured at λmax 570 nm as a reference wavelength using a multi-well plate reader.

## CC1(C)CCC2(C(=O)OCc3cc(-c4ccc(Cl)cc4)no3)CCC3(C)C(=CCC4C5(C)CC(O)C(O)C(C)(C)C5CCC43C)C2C1 (stereo not drawn) [Compound 17, (3-(4-chlorophenyl)isoxazol-5-yl) methyl-(2α,3β)-2,3-dihydroxyolean-12-en-28-oate]
[1]
  IC50: 6.25 µM
[2]; Vero-E6 cells pretreated with compound 2 h at 4 °C
  effect on viral adsorption: efficiently impair viral replication and adsorption
[2]; compound applied to infected Vero-E6 cells after adsorption
  effect on viral replication: efficiently impair viral replication
[2]; virus mixed with compound 1 h before infection of Vero-E6
  virucidal effect: virucidal effect
[3]
  IC50: 4.12 µM
[4]
  CC50 at 72 h: 142 µM
